According to patent US20220362275A1, “Method and Compositions for Treating Glioblastoma” (PHOENIX BIOTECHNOLOGY, INC., priority 2019, published 2022):
Entries after “also recorded” stand apart in the source; their conditions may differ. Where two headings read alike, the source gives them in different places.

Columns and labels:
[1] = test system: GS28 stem cell line; assay: High throughput growth/viability assay (Cell Titer Glo-3D), GS28; format: cell-based; details: FIG. 17D
Experimental: (§1) A total of 500 GBM9 cells or 1,000 GS28 cells per well suspended in 50 ul of media are seeded into Greiner Black 384-well plates (Cat #781091) using Multidrop Combi liquid dispenser (ThermoFisher).
(§2) The cells are allowed to recover and form a monolayer overnight at 37 C in a humidified chamber with 5% CO2.
(§3) After recovery, 50 nl of each drug are transferred into well using an Echo 550 acoustic dispensing platform (Labcyte).
(§4) In the combination screen, two or three drugs are tested with a fixed volume of DMSO ([…]) and two biological replicates. Each assay plate contains a fixed concentration of drug in addition to a negative control (0.1% DMSO), a positive control (10 uM Doxorubicin), and an 8-point dose response curve of the positive controls. Each well image is taken using the ImageXpress Micro Conforcal High Content Imaging System (MolecularDevices) everyday four times.
(§5) After 72 hr incubation in the presence of drug, plates are aspirated for left 25 ul and then, 25 ul of Cell Titer Glo-3D (Promega) are added and incubated for 20 minutes. Assay plates are read on the Synergy Neo2 Hybrid Multi-Mode Microplate Reader (BioTek).

[2] = test system: GBM9 stem cell line; assay: High throughput growth/viability assay (Cell Titer Glo-3D), GBM9; format: cell-based; details: FIG. 17E
Experimental: as §1, §2, §3, §4, §5

[3] = Oral bioavailability anticipated from human clinical data; details: in vivo, based on human clinical data, read-out: part of an administered dose orally bioavailable
[4] = test system: caspase 3, 8 and 9 in human GBM U87MG, U251 and T98 cells; assay: Caspase 3, 8 and 9 enzymatic activity (chromogenic substrates); format: cell-based; details: pan-caspase inhibitor added
Experimental: For cell cycle analysis, cells (2.5×10^6) grown in 100-mm dishes were treated with PBI-05204 (0.5-2.5 μg/ml) for 24 hr. Cells were subjected to trypsinization and centrifugation, and the pellets were suspended and washed in 1× phosphate-buffered saline solution (PBS) and were fixed overnight in 70% ethanol at 4° C. The cells were then washed with 1×PBS and were suspended in PBTB staining solution containing PBS, 0.5% bovine serum albumin (BSA), 0.005% Tween-20, propidium iodide (10 μg/ml) and DNase-free RNase (1 μg/ml). Cells were incubated in the dark for 30 min at 37° C. before fluorescence-activated cell-sorting (FACS) analysis using a BD FACS Caliber flow cytometer (BD Biosciences, San Jose, Calif.). The percentage of cells in each phase of the cell cycle was estimated from the DNA histogram content. Apoptosis was evaluated by APOSTRAND™ ELISA apoptosis detection kit (3V Chimica S.r.l. Rome, Italy) and by caspase-specific chromogenic substrates at 450 nm in an ELISA plate reader such as Ac-DEVD-pNA (caspase-3), Ac-IETD-pNA (caspase 8) and Ac-LEHD-pNA (caspase 9) purchased from Kaneka Eurogentec SA (Seraing, Belgium).

[5] = test system: GBM; details: cited from earlier work
[6] = cited from earlier work
[7] = test system: GBM; details: addition to standard treatment; cited from earlier work
[8] = all concentrations ranging from 1×10^−4.5 to 1×10^−7 M

In the case of `C[C@H]1[C@H](C)CC[C@]2(C(=O)O)CC[C@]3(C)C(=CC[C@@H]4[C@@]5(C)CC[C@H](O)C(C)(C)[C@@H]5CC[C@]43C)[C@H]12` [Ursolic acid, ursolic acid], the “activity at concentrations below about 5.6 microM” value [1] is reported as “little to no activity” and the “activity at concentrations below about 10 microM” value [2] is reported as “little to no activity”.
Work on `CO[C@H]1C[C@H](O[C@H]2CC[C@@]3(C)[C@H](CC[C@@H]4[C@@H]3CC[C@]3(C)[C@@H](C5=CC(=O)OC5)[C@@H](OC(C)=O)C[C@]43O)C2)O[C@@H](C)[C@@H]1O` [oleandrin] yielded a bioavailability [3] of 50 to 75%.
With z-VAD-fmk the “PBI-05204 induced caspase 3 activity” value [4] was “largely inhibited”.
For `Cn1nnc2c(C(N)=O)ncn2c1=O` [TMZ, temozolomide], the “grade ≥3 toxicity” value ([5]; ddTMZ arm) is given as 53%, the “grade ≥3 toxicity” value ([5]; sdTMZ arm) is given as 34% and the “entry into the cerebrospinal fluid” value ([6]; in vivo) is given as “readily enters”. The pharmacokinetics ([6]; in vivo) was “linear” and the bioavailability ([6]; oral) was “excellent”.
In the case of `CC1(C)CC[C@]2(C(=O)O)CC[C@]3(C)C(=CC[C@@H]4[C@@]5(C)CC[C@H](O)C(C)(C)[C@@H]5CC[C@]43C)[C@@H]2C1` [oleanolic acid], the “activity (inhibition of growth of GBM stem cells)” value [1, 8] is reported as “very poor activity” and the “activity (inhibition of growth of GBM stem cells)” value [2, 8] is reported as “very poor activity; also recorded: little to no activity”.
In the case of bevacizumab, the “overall survival (OS)” value [7] is given as “no increase” and the “progression-free survival (PFS)” value [7] is given as “improved”.
